In US10858360B2, “Tricyclic gyrase inhibitors” (priority 2011, dated 2020):
Converted amounts (≈) assume the structure as drawn.

Key:
S. aureus ATCC 13709 = assay: MIC, S. aureus ATCC 13709 (Alamar Blue broth microdilution); assay type: cell-based; conditions: Alamar Blue read after overnight incubation at 35° C.; for MIC Sa: S. aureus; for MIC: Staphylococcus aureus, ATCC13709, S. aureus
E. coli ATCC 25922 = assay: MIC, E. coli ATCC 25922; assay type: cell-based; conditions: Alamar Blue read after overnight incubation at 35° C.; for MIC Ec: E. coli; for MIC: Escherichia coli, ATCC25922, E. coli

CNc1cc(F)cc2c1[nH]c1nc(Oc3ccc4nc5n(c(=O)c4c3)CCC5)nc(N3CC4(CCC4N)C3)c12 (centres unmarked) [4.377]
MIC Sa (S. aureus ATCC 13709): 4 µg/mL (≈ 7.6 µM)
MIC Ec (E. coli ATCC 25922): 16 µg/mL (≈ 30.4 µM)

CNc1ncnc2c1[nH]c1nc(Oc3cnc(C)nc3)nc(N3CCC4(CC4N)C3)c12 (centres unmarked) [7.09]
MIC (S. aureus ATCC 13709): 8 µg/mL (≈ 19.1 µM)
MIC (E. coli ATCC 25922): > 64 µg/mL

CNc1cccc2c1[nH]c1nc(Oc3cnc(C)nc3)nc(N3CCC4(CC4N)C3)c12 (centres unmarked) [3.42]
MIC (S. aureus ATCC 13709): ≤ 0.5 µg/mL
MIC (E. coli ATCC 25922): 2 µg/mL (≈ 4.8 µM)

CNc1cccc2c1[nH]c1nc(Sc3cnc4ccc[n+]([O-])c4c3)nc(N3C[C@@H]4[C@@H](CN)[C@@H]4C3)c12 [1.18]
MIC (S. aureus ATCC 13709): ≤ 0.5 µg/mL
MIC (E. coli ATCC 25922): 2 µg/mL (≈ 4.13 µM)

CNc1cc(F)cc2c1[nH]c1nc(Oc3cnc4c(c3)C(=O)NC4)nc(N3C[C@H](N)C4(CC4)C3)c12 [4.356]
MIC (S. aureus ATCC 13709): ≤ 0.5 µg/mL
MIC (E. coli ATCC 25922): 4 µg/mL (≈ 8.43 µM)

CNc1cccc2c1[nH]c1nc(Sc3cnc4cccnc4c3)nc(N3CC4C(N)C4C3)c12 (centres unmarked) [1.24]
MIC Sa (S. aureus ATCC 13709): ≤0.5 µg/mL
MIC Ec (E. coli ATCC 25922): 1 µg/mL (≈ 2.2 µM)

CCOC(=O)C1CN(c2nc(Oc3cnc(C)nc3)nc3[nH]c4c(NC)cc(F)cc4c23)CC1N (centres unmarked) [4.140]
MIC Sa (S. aureus ATCC 13709): ≤0.5 µg/mL
MIC Ec (E. coli ATCC 25922): 2 µg/mL (≈ 4.16 µM)

CNc1cc(F)cc2c1[nH]c1nc(Oc3cnc(C)nc3)nc(-c3cncc(N)c3)c12 [4.450]
MIC (S. aureus ATCC 13709): ≤ 0.5 µg/mL
MIC (E. coli ATCC 25922): 2 µg/mL (≈ 4.8 µM)

CNc1cc(F)cc2c1[nH]c1nc(Oc3cnc(C4CC4)nc3)nc(N3CC4C(CN)C4C3)c12 (centres unmarked) [4.249]
MIC (S. aureus ATCC 13709): ≤ 0.5 µg/mL
MIC (E. coli ATCC 25922): ≤ 0.5 µg/mL

CNc1cccc2c1[nH]c1nc(Sc3cnc4cccnc4c3)nc(N3CC(N)C4(CC4)C3)c12 (centres unmarked) [1.27]
MIC (S. aureus ATCC 13709): ≤ 0.5 µg/mL
MIC (E. coli ATCC 25922): 1 µg/mL (≈ 2.13 µM)

CCc1ncc(Oc2nc(N3CC4C[C@@H](N)C4C3)c3c(n2)[nH]c2c(NC)cc(F)cc23)cn1 (some centres unmarked) [4.264]
MIC (S. aureus ATCC 13709): ≤ 0.5 µg/mL
MIC (E. coli ATCC 25922): ≤ 0.5 µg/mL

CNc1cc(F)cc2c1[nH]c1nc(Oc3cnc(N(C)C)nc3)nc(N3C[C@H](N)C4(CC4)C3)c12 [4.209]
MIC (S. aureus ATCC 13709): ≤ 0.5 µg/mL
MIC (E. coli ATCC 25922): ≤ 0.5 µg/mL

CNc1cc(F)cc2c1[nH]c1nc(Oc3cnc(C)nc3)nc(N3CC4CC(N)C3C4)c12 (centres unmarked) [4.154]
MIC Sa (S. aureus ATCC 13709): 2 µg/mL (≈ 4.6 µM)
MIC Ec (E. coli ATCC 25922): 16 µg/mL (≈ 36.8 µM)

CNc1cccc2c1[nH]c1nc(Sc3cncnc3)nc(N3CC4C(N)C4C3)c12 (centres unmarked) [1.43]
MIC (S. aureus ATCC 13709): 2 µg/mL (≈ 4.94 µM)
MIC (E. coli ATCC 25922): 8 µg/mL (≈ 19.8 µM)

CNc1cc(F)cc2c1[nH]c1nc(Oc3cnc(C(C)(C)C)nc3)nc(N3CCC4CNC4C3)c12 (centres unmarked) [4.317]
MIC (S. aureus ATCC 13709): ≤ 0.5 µg/mL
MIC (E. coli ATCC 25922): 2 µg/mL (≈ 4.2 µM)

CNc1cccc2c1[nH]c1nc(Sc3cnc4cccnc4c3)nc(N3CC4CCCNC4C3)c12 (centres unmarked) [1.28]
MIC (S. aureus ATCC 13709): 4 µg/mL (≈ 8.29 µM)
MIC (E. coli ATCC 25922): 16 µg/mL (≈ 33.2 µM)

CNc1cc(F)cc2c1[nH]c1nc(Oc3cnc4[nH]cnc4c3)nc(N3CC4C(N)C4C3)c12 (centres unmarked) [4.311]
MIC (S. aureus ATCC 13709): 4 µg/mL (≈ 8.98 µM)
MIC (E. coli ATCC 25922): > 16 µg/mL

COc1cccc2c1[nH]c1nc(Sc3cnc4nccnc4c3)nc(N3CC4C(N)C4C3)c12 (centres unmarked) [1.76]
MIC (S. aureus ATCC 13709): 1 µg/mL (≈ 2.19 µM)
MIC (E. coli ATCC 25922): > 64 µg/mL

CNc1cc(F)cc2c1[nH]c1nc(Oc3cnc(C#N)c(C)c3)nc(N3CC4CC(N)C4C3)c12 (centres unmarked) [4.323]
MIC Sa (S. aureus ATCC 13709): ≤0.5 µg/mL
MIC Ec (E. coli ATCC 25922): 1 µg/mL (≈ 2.18 µM)

CNc1cc(F)cc2c1[nH]c1nc(Oc3cncc(SC)c3)nc(N3C[C@H](N)C4(CC4)C3)c12 [4.354]
MIC (S. aureus ATCC 13709): ≤ 0.5 µg/mL
MIC (E. coli ATCC 25922): 1 µg/mL (≈ 2.15 µM)

CNc1cc(F)cc2c1[nH]c1nc(Oc3cnc(C4CCC4)nc3)nc(N3C[C@H](N)C4(CC4)C3)c12 [4.287]
MIC (S. aureus ATCC 13709): ≤ 0.5 µg/mL
MIC (E. coli ATCC 25922): ≤ 0.5 µg/mL

CNc1cc(F)cc2c1[nH]c1nc(Oc3cncc(Cl)c3)nc(N3CC4CC3CC4N)c12 (centres unmarked) [4.276]
MIC Sa (S. aureus ATCC 13709): ≤0.5 µg/mL
MIC Ec (E. coli ATCC 25922): 8 µg/mL (≈ 17.6 µM)

CNc1cc(F)cc2c1[nH]c1nc(Oc3ccc4c(c3)C(=O)NCC4)nc(N3CC4C(N)C4C3)c12 (centres unmarked) [4.301]
MIC Sa (S. aureus ATCC 13709): ≤0.5 µg/mL
MIC Ec (E. coli ATCC 25922): 1 µg/mL (≈ 2.11 µM)

CNc1cc(F)cc2c1[nH]c1nc(Oc3ccc4sc(C)nc4c3)nc(N3CC4CCC(N)C4C3)c12 (centres unmarked) [4.322]
MIC Sa (S. aureus ATCC 13709): ≤0.5 µg/mL
MIC Ec (E. coli ATCC 25922): ≤0.5 µg/mL

CNc1cccc2c1[nH]c1nc(Oc3cncnc3)nc(N3CCN(Cc4ccccn4)CC3)c12 [3.54]
MIC (S. aureus ATCC 13709): 8 µg/mL (≈ 17.1 µM)
MIC (E. coli ATCC 25922): > 32 µg/mL

CNc1cc(F)cc2c1[nH]c1nc(Oc3cnc(N4CCN(C(C)=O)CC4)nc3)nc(N3CCC(N)C3)c12 (centres unmarked) [4.229]
MIC Sa (S. aureus ATCC 13709): ≤0.5 µg/mL
MIC Ec (E. coli ATCC 25922): 2 µg/mL (≈ 3.84 µM)

CNc1cccc2c1[nH]c1nc(Oc3cnc(N)nc3)nc(Oc3cnc(N)nc3)c12 [3.53]
MIC (S. aureus ATCC 13709): 8 µg/mL (≈ 19.2 µM)
MIC (E. coli ATCC 25922): > 64 µg/mL

CNc1cccc2c1[nH]c1nc(Sc3cnc4cccnc4c3)nc(N3CCC[C@@H](N)C3)c12 [1.37]
MIC (S. aureus ATCC 13709): 1 µg/mL (≈ 2.19 µM)
MIC (E. coli ATCC 25922): 4 µg/mL (≈ 8.76 µM)

CNc1cccc2c1[nH]c1nc(Sc3cnc4ccc[n+]([O-])c4c3)nc(N3CCC[C@@H](N)C3)c12 [1.34]
MIC (S. aureus ATCC 13709): 1 µg/mL (≈ 2.12 µM)
MIC (E. coli ATCC 25922): 4 µg/mL (≈ 8.46 µM)

CNc1cc(F)cc2c1[nH]c1nc(Oc3cnc4ccoc4c3)nc(N3CC4CCC(N)C4C3)c12 (centres unmarked) [4.293]
MIC Sa (S. aureus ATCC 13709): ≤0.5 µg/mL
MIC Ec (E. coli ATCC 25922): 1 µg/mL (≈ 2.11 µM)

CNc1cc(F)cc2c1[nH]c1nc(Oc3cnc(N)nc3)nc(N3CCC4(CC4N)C3)c12 (mixture of isomers) [4.174]
MIC Sa (S. aureus ATCC 13709): ≤0.5 µg/mL
MIC Ec (E. coli ATCC 25922): ≤0.5 µg/mL

CNc1cc(F)cc2c1[nH]c1nc(Oc3cnc(C(C)(C)C)nc3)nc(N3CC4C(N)C4C3)c12 (centres unmarked) [4.314]
MIC (S. aureus ATCC 13709): ≤ 0.5 µg/mL
MIC (E. coli ATCC 25922): ≤ 0.5 µg/mL

CNc1cc(F)cc2c1[nH]c1nc(Oc3cnc(C(C)(C)O)nc3)nc(N3CC4C[C@@H](N)C4C3)c12 (some centres unmarked) [4.412]
MIC (S. aureus ATCC 13709): ≤ 0.5 µg/mL
MIC (E. coli ATCC 25922): ≤ 0.5 µg/mL

CNc1cc(F)cc2c1[nH]c1nc(Oc3cnc4c(c3)C(=O)NC4)nc(N3CC4C[C@@H](N)C4C3)c12 (some centres unmarked) [4.357]
MIC (S. aureus ATCC 13709): ≤ 0.5 µg/mL
MIC (E. coli ATCC 25922): 4 µg/mL (≈ 8.43 µM)

CNc1cccc2c1[nH]c1nc(Sc3cncc(S(=O)(=O)NC)c3)nc(N3CC4C(N)C4C3)c12 (centres unmarked) [1.36]
MIC (S. aureus ATCC 13709): 2 µg/mL (≈ 4.03 µM)
MIC (E. coli ATCC 25922): 4 µg/mL (≈ 8.05 µM)

CNc1cc(F)cc2c1[nH]c1nc(Oc3cnc4cccnc4c3)nc(N3CC4[C@H](C[C@H]4N)C3)c12 (some centres unmarked) [4.043]
MIC (S. aureus ATCC 13709): ≤ 0.5 µg/mL
MIC (E. coli ATCC 25922): ≤ 0.5 µg/mL

CNc1cc(F)cc2c1[nH]c1nc(Oc3cnc(C)nc3)nc(N3CCNCC34CC4)c12 [4.133]
MIC Sa (S. aureus ATCC 13709): >16 µg/mL
MIC Ec (E. coli ATCC 25922): >16 µg/mL

CNc1cc(F)cc2c1[nH]c1nc(Oc3cnc(C)nc3)nc(N3CCNC4(CC4)C3)c12 [4.132]
MIC Sa (S. aureus ATCC 13709): ≤0.5 µg/mL
MIC Ec (E. coli ATCC 25922): 2 µg/mL (≈ 4.6 µM)

CNc1cc(F)cc2c1[nH]c1nc(Oc3cnc4cccnc4c3)nc(N3CC[C@@]4(C[C@H]4N)C3)c12 [4.041]
MIC (S. aureus ATCC 13709): ≤ 0.5 µg/mL
MIC (E. coli ATCC 25922): 1 µg/mL (≈ 2.13 µM)

CNc1cc(F)cc2c1[nH]c1nc(Oc3cncc(Cl)c3)nc(N3CCC4(C[C@H]4N)C3)c12 (some centres unmarked) [4.278]
MIC (S. aureus ATCC 13709): ≤ 0.5 µg/mL
MIC (E. coli ATCC 25922): ≤ 0.5 µg/mL

CNc1cc(F)cc2c1[nH]c1nc(Oc3cnc(N4CC(S(=O)(=O)CC5CC5)C4)nc3)nc(N3C[C@H](N)C4(CC4)C3)c12 [4.338]
MIC Sa (S. aureus ATCC 13709): ≤0.5 µg/mL
MIC Ec (E. coli ATCC 25922): 2 µg/mL (≈ 3.37 µM)

CNc1cc(F)cc2c1[nH]c1nc(Oc3cnc(C4CC4)nc3)nc(N3CC4NCCCC43)c12 (centres unmarked) [4.247]
MIC (S. aureus ATCC 13709): 1 µg/mL (≈ 2.17 µM)
MIC (E. coli ATCC 25922): 8 µg/mL (≈ 17.4 µM)

CNc1cc(F)cc2c1[nH]c1nc(Oc3cncc(Cl)c3)nc(N3CC4(CCC4N)C3)c12 (centres unmarked) [4.275]
MIC Sa (S. aureus ATCC 13709): ≤0.5 µg/mL
MIC Ec (E. coli ATCC 25922): ≤0.5 µg/mL

CNc1cccc2c1[nH]c1nc(Oc3cncc(C#N)c3)nc(N3CCN(CCN4CCOCC4)CC3)c12 [3.59]
MIC (S. aureus ATCC 13709): 4 µg/mL (≈ 7.79 µM)
MIC (E. coli ATCC 25922): > 64 µg/mL

CNc1cc(F)cc2c1[nH]c1nc(Oc3cnc(C4CC4)nc3)nc(N3CCC(N)C3)c12 (centres unmarked) [4.243]
MIC Sa (S. aureus ATCC 13709): ≤0.5 µg/mL
MIC Ec (E. coli ATCC 25922): ≤0.5 µg/mL

CNc1cc(F)cc2c1[nH]c1nc(Oc3cncc([S+](C)[O-])c3)nc(N3CC4C[C@@H](N)C4C3)c12 (some centres unmarked) [4.353]
MIC (S. aureus ATCC 13709): ≤ 0.5 µg/mL
MIC (E. coli ATCC 25922): 2 µg/mL (≈ 4.15 µM)
